Experimental data taken from ChEMBL document CHEMBL1201862, “PubChem BioAssay data set” (2004).
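Each compound was tested at five concentrations against cells in 96-well plates for 48 hours. GI50: concentration for 50% inhibition of growth.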 Active and inactive are the calls of the source. Rule as the data show it: active = GI50 up to about 1.1 µM and inactive = higher. Starred links: 1 amine or outer side, 2 acyl side, 3 side chain; linkers in the order of their positions; H or OH if unused. Positions of bridges follow the written chain, without caps; N, C: chain ends. Non-standard residues stand in square brackets, D forms with d. Residues, ends and D or L forms follow the SMILES beside them. ξ: configuration not given here. X11 = CCC(C)C(N[*:1])C(O)CC(=O)O[C@H](C(=O)C(C)C(=O)[*:2])C(C)C; X10 = O=C([C@@H]1CC(O)CN1[*:1])[*:2]; NMeY = CN[C@@H](Cc1ccc(O)cc1)C(=O)O; ξNMeL = CNC(CC(C)C)C(=O)O; ξT = CC(O)C(N)C(=O)O

How the values were obtained:
Experiment in all cases: DTP human tumour cell line panel, 48 h
EKVX = system: EKVX
SN12C = system: SN12C
A549 = system: A549
ACHN = system: ACHN
HT-29 = system: HT-29
UACC-257 = system: UACC-257
OVCAR-4 = system: OVCAR-4
OVCAR-3 = system: OVCAR-3
NCI-H522 = system: NCI-H522
SK-MEL-28 = system: SK-MEL-28
HOP-62 = system: HOP-62
RXF 393 = system: RXF 393
SF-539 = system: SF-539
SF-268 = system: SF-268
COLO 205 = system: COLO 205
NCI-H460 = system: NCI-H460
A498 = system: A498
RPMI-8226 = system: RPMI-8226
K562 = system: K562
UO-31 = system: UO-31

| SMILES | GI50 (EKVX) | GI50 (SN12C) | GI50 (A549) | GI50 (ACHN) | GI50 (HT-29) | GI50 (UACC-257) | GI50 (OVCAR-4) | GI50 (OVCAR-3) | GI50 (NCI-H522) | GI50 (SK-MEL-28) | GI50 (HOP-62) | GI50 (RXF 393) | GI50 (SF-539) | GI50 (SF-268) | GI50 (COLO 205) | GI50 (NCI-H460) | GI50 (A498) | GI50 (RPMI-8226) | GI50 (K562) | GI50 (UO-31) |
| --- | --- | --- | --- | --- | --- | --- | --- | --- | --- | --- | --- | --- | --- | --- | --- | --- | --- | --- | --- | --- |
| CC1(C)Oc2ccccc2OC1O (stereo not given) | > 100 µM (inactive) | > 100 µM (inactive) | > 100 µM (inactive) | > 100 µM (inactive) | > 100 µM (inactive) | > 100 µM (inactive) | > 100 µM (inactive) | > 100 µM (inactive) | > 100 µM (inactive) | > 100 µM (inactive) | > 100 µM (inactive) | > 100 µM (inactive) | > 100 µM (inactive) | > 100 µM (inactive) | > 100 µM (inactive) | > 100 µM (inactive) | > 100 µM (inactive) | > 100 µM (inactive) | > 100 µM (inactive) | > 100 µM (inactive) |
| COc1ccc(NC(=O)C(=O)NO)c(OC)c1 | 14.9 µM (inactive) | 20 µM (inactive) | 19.6 µM (inactive) | 15.9 µM (inactive) | 20.7 µM (inactive) | 22.2 µM (inactive) | 17.7 µM (inactive) | 16.6 µM (inactive) | 5.92 µM (inactive) | 17.5 µM (inactive) | 19.9 µM (inactive) | 15.6 µM (inactive) | 20.9 µM (inactive) | 16.9 µM (inactive) | 21 µM (inactive) | 16 µM (inactive) | 21.5 µM (inactive) | 15.1 µM (inactive) | 19.8 µM (inactive) | 16.2 µM (inactive) |
| Cc1ccc(S(=O)(=O)OC(COC(=O)c2ccccc2)C(OS(=O)(=O)c2ccc(C)cc2)C(OS(=O)(=O)c2ccc(C)cc2)C(COC(=O)c2ccccc2)OS(=O)(=O)c2ccc(C)cc2)cc1 (stereo not given) | > 100 µM (inactive) | > 100 µM (inactive) | > 100 µM (inactive) | > 100 µM (inactive) | > 100 µM (inactive) | > 100 µM (inactive) | > 100 µM (inactive) | > 100 µM (inactive) | > 100 µM (inactive) | > 100 µM (inactive) | > 100 µM (inactive) | > 100 µM (inactive) | > 100 µM (inactive) | > 100 µM (inactive) | > 100 µM (inactive) | > 100 µM (inactive) | > 100 µM (inactive) | > 100 µM (inactive) | > 100 µM (inactive) | > 100 µM (inactive) |
| CN(/N=C/c1cccc2cccnc12)c1ccc([N+](=O)[O-])cc1[N+](=O)[O-] | 45.8 µM (inactive) | 46.1 µM (inactive) | 48.5 µM (inactive) | 22 µM (inactive) | > 100 µM (inactive) | 82 µM (inactive) | 20.7 µM (inactive) | 16.4 µM (inactive) | 16.4 µM (inactive) | > 88.1 µM (inactive) | 8.61 µM (inactive) | 17.1 µM (inactive) | 11.3 µM (inactive) | 18.5 µM (inactive) | 86.3 µM (inactive) | 46 µM (inactive) | 17.4 µM (inactive) | > 90.2 µM (inactive) | > 100 µM (inactive) | 37.3 µM (inactive) |
| Cc1cccc(C)c1NC(=O)C(=O)C1C(=O)N(c2ccccc2)N=C1N (stereo not given) | > 100 µM (inactive) | > 100 µM (inactive) | > 100 µM (inactive) | > 100 µM (inactive) | > 100 µM (inactive) | > 100 µM (inactive) | > 100 µM (inactive) | > 100 µM (inactive) | > 100 µM (inactive) | > 100 µM (inactive) | > 100 µM (inactive) | > 100 µM (inactive) | > 100 µM (inactive) | > 100 µM (inactive) | > 100 µM (inactive) | > 100 µM (inactive) | > 100 µM (inactive) | > 100 µM (inactive) | > 100 µM (inactive) | > 100 µM (inactive) |
| CCC(C)C1NC(=O)C(NC(=O)C(CC(C)C)N(C)C(=O)[C@@H]2CC(O)CN2)C(C)OC(=O)[C@H](Cc2ccc(OC)cc2)N(C)C(=O)[C@@H]2CCCN2C(=O)[C@H](CC(C)C)NC(=O)C(C)C(=O)[C@H](C(C)C)OC(=O)CC1O (stereo not given in full) (H-[X10][ξNMeL][ξT][X11]LP[NMeY](Me); ester 3-C) | 0.01 µM (active) | 0.00951 µM (active) | 0.0228 µM (active) | 0.0382 µM (active) | 0.00445 µM (active) | 0.0152 µM (active) | 0.00594 µM (active) | 0.014 µM (active) | 0.00488 µM (active) | < 0.001 µM (active) | 0.00931 µM (active) | 0.0115 µM (active) | 0.00157 µM (active) | 0.011 µM (active) | 0.00309 µM (active) | 0.00491 µM (active) | 0.0548 µM (active) | 0.0082 µM (active) | 0.00394 µM (active) | 0.233 µM (active) |
